Reference: ChEMBL document CHEMBL1201862, “PubChem BioAssay data set” (2004)
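All cell lines were grown in 96-well plates and treated with compound for 48 hours. Here, GI50 denotes the concentration required for 50% inhibition of growth.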 The source made the active and inactive calls. Rule as the data show it: active = GI50 up to about 1.1 µM and inactive = higher.

How the values were obtained:
Test in all cases: DTP human tumour cell line panel, 48 h
[1] = tested on: Hs-578T
[2] = tested on: MDA-MB-435
[3] = tested on: ACHN
[4] = tested on: MOLT-4
[5] = tested on: OVCAR-3
[6] = tested on: NCI/ADR-RES
[7] = tested on: SK-MEL-2
[8] = tested on: HT-29
[9] = tested on: SF-268
[10] = tested on: 786-0
[11] = tested on: SN12C
[12] = tested on: MDA-MB-231
[13] = tested on: HCT-15
[14] = tested on: SW-620
[15] = tested on: OVCAR-5
[16] = tested on: KM12
[17] = tested on: HOP-92
[18] = tested on: NCI-H460
[19] = tested on: SK-MEL-28
[20] = tested on: Malme-3M

SMILES	GI50 [1]	GI50 [2]	GI50 [3]	GI50 [4]	GI50 [5]	GI50 [6]	GI50 [7]	GI50 [8]	GI50 [9]	GI50 [10]	GI50 [11]	GI50 [12]	GI50 [13] [µM]	GI50 [14]	GI50 [15]	GI50 [16]	GI50 [17]	GI50 [18]	GI50 [19]	GI50 [20]
COc1cccc(C2CC(=O)c3cc(N4CCCC4)ccc3N2)c1 (stereo not drawn)	0.01 µM (active)	0.00794 µM (active)	0.0832 µM (active)	0.0338 µM (active)	0.0344 µM (active)	0.0173 µM (active)	0.0296 µM (active)	0.0211 µM (active)	0.0692 µM (active)	0.0404 µM (active)	0.0418 µM (active)	0.0766 µM (active)	0.0335	0.0243 µM (active)	0.0608 µM (active)	0.0861 µM (active)	0.348 µM (active)	0.0402 µM (active)	–	–
CC(=O)Nc1ccc(-c2nc3ccccc3s2)cc1	40.3 µM (inactive)	97.5 µM (inactive)	32.4 µM (inactive)	20.2 µM (inactive)	–	28.7 µM (inactive)	57.4 µM (inactive)	73.1 µM (inactive)	51.3 µM (inactive)	24 µM (inactive)	–	26.8 µM (inactive)	81.5	53.6 µM (inactive)	–	35.3 µM (inactive)	55.5 µM (inactive)	36.1 µM (inactive)	71.9 µM (inactive)	–
Nc1ncnc2c1ncn2CC(OCP(=O)(O)O)Oc1ccccc1 (stereo not drawn)	> 100 µM (inactive)	> 100 µM (inactive)	> 100 µM (inactive)	–	> 100 µM (inactive)	> 100 µM (inactive)	> 100 µM (inactive)	–	> 100 µM (inactive)	> 100 µM (inactive)	> 100 µM (inactive)	> 100 µM (inactive)	> 100	> 100 µM (inactive)	> 100 µM (inactive)	> 100 µM (inactive)	> 100 µM (inactive)	–	> 100 µM (inactive)	–
CC(C)OC(=O)c1ccc(NCc2cc(O)ccc2O)cc1Cl	23.7 µM (inactive)	2.15 µM (inactive)	1.78 µM (inactive)	0.695 µM (active)	2.56 µM (inactive)	2.78 µM (inactive)	15.1 µM (inactive)	9.57 µM (inactive)	13.1 µM (inactive)	2.09 µM (inactive)	4 µM (inactive)	4.18 µM (inactive)	0.798	2.72 µM (inactive)	8.43 µM (inactive)	3.64 µM (inactive)	1.51 µM (inactive)	6.08 µM (inactive)	4.28 µM (inactive)	–
CC1SCCc2nc3ccccc3n21 (stereo not drawn)	> 100 µM (inactive)	> 100 µM (inactive)	–	> 100 µM (inactive)	> 100 µM (inactive)	> 100 µM (inactive)	> 100 µM (inactive)	> 100 µM (inactive)	> 100 µM (inactive)	> 100 µM (inactive)	> 100 µM (inactive)	> 100 µM (inactive)	> 100	> 100 µM (inactive)	> 100 µM (inactive)	> 100 µM (inactive)	> 100 µM (inactive)	> 100 µM (inactive)	> 100 µM (inactive)	–
CC(=O)O[C@H]1[C@@H]2OC(=O)[C@@](O)(CC3CCCO3)[C@@H]2CC(=O)[C@](C)(O)CC/C=C(\C)CCC[C@@H]1C (stereo partly drawn)	63.4 µM (inactive)	31.7 µM (inactive)	38.8 µM (inactive)	–	63.2 µM (inactive)	57.9 µM (inactive)	57.5 µM (inactive)	–	> 100 µM (inactive)	37.9 µM (inactive)	30.4 µM (inactive)	20.7 µM (inactive)	34.3	22.5 µM (inactive)	> 100 µM (inactive)	67.6 µM (inactive)	28.2 µM (inactive)	> 100 µM (inactive)	20.3 µM (inactive)	41.2 µM (inactive)
C=C1[C@H](OC(=O)C(C)C)[C@@H](OC(C)=O)[C@@H](OC(C)=O)C(C)(C)[C@@H]2O[C@H]2[C@@H](C)C(=O)[C@@]2(OC(C)=O)C[C@@](C)(OC(C)=O)[C@H](OC(C)=O)[C@@H]2[C@H]1OC(C)=O	> 100 µM (inactive)	> 100 µM (inactive)	> 100 µM (inactive)	> 100 µM (inactive)	> 100 µM (inactive)	> 100 µM (inactive)	> 100 µM (inactive)	> 100 µM (inactive)	> 100 µM (inactive)	> 100 µM (inactive)	> 100 µM (inactive)	> 100 µM (inactive)	> 100	> 100 µM (inactive)	> 100 µM (inactive)	> 100 µM (inactive)	> 100 µM (inactive)	> 100 µM (inactive)	–	> 100 µM (inactive)
Cc1c(Cc2ccccc2)n(C(C)OCCN(OC(=O)Oc2ccccc2)C(=O)Oc2ccccc2)c(=O)[nH]c1=O (stereo not drawn)	12.9 µM (inactive)	23.4 µM (inactive)	26.3 µM (inactive)	14.5 µM (inactive)	19 µM (inactive)	16.9 µM (inactive)	19.7 µM (inactive)	16.1 µM (inactive)	14.7 µM (inactive)	18.3 µM (inactive)	19.8 µM (inactive)	19.5 µM (inactive)	14.6	20.7 µM (inactive)	17.2 µM (inactive)	15.8 µM (inactive)	13.5 µM (inactive)	17.8 µM (inactive)	21.3 µM (inactive)	–
Cc1cccc(Nc2nc(NNC(=O)Cc3ccccc3)nc(NNC(=O)c3ccncc3)n2)c1	> 10 µM (inactive)	> 10 µM (inactive)	> 10 µM (inactive)	> 10 µM (inactive)	–	> 10 µM (inactive)	–	> 10 µM (inactive)	> 10 µM (inactive)	> 10 µM (inactive)	> 10 µM (inactive)	> 10 µM (inactive)	> 10	> 10 µM (inactive)	–	> 10 µM (inactive)	> 10 µM (inactive)	> 10 µM (inactive)	> 10 µM (inactive)	> 10 µM (inactive)
Cc1nc2ccc(Br)cc2c(=O)n1-c1nnc(C(C)(C)C)s1	7.46 µM (inactive)	> 10 µM (inactive)	> 10 µM (inactive)	> 10 µM (inactive)	> 10 µM (inactive)	> 10 µM (inactive)	> 10 µM (inactive)	> 10 µM (inactive)	> 10 µM (inactive)	> 10 µM (inactive)	> 10 µM (inactive)	> 10 µM (inactive)	> 10	> 10 µM (inactive)	> 10 µM (inactive)	> 10 µM (inactive)	> 10 µM (inactive)	> 10 µM (inactive)	> 10 µM (inactive)	–
COc1cccc(CCCNC(=O)Cc2ccccc2CO)c1	> 100 µM (inactive)	> 100 µM (inactive)	> 100 µM (inactive)	> 100 µM (inactive)	> 100 µM (inactive)	> 100 µM (inactive)	> 100 µM (inactive)	> 100 µM (inactive)	–	> 100 µM (inactive)	> 100 µM (inactive)	> 100 µM (inactive)	> 100	> 100 µM (inactive)	> 100 µM (inactive)	> 100 µM (inactive)	> 100 µM (inactive)	> 100 µM (inactive)	> 100 µM (inactive)	> 100 µM (inactive)
CSc1ccc(/C=C2\N=C(c3ccccc3)N(c3nc4cc(Cl)c(F)cc4s3)C2=O)cc1	21.7 µM (inactive)	33 µM (inactive)	36.4 µM (inactive)	29.6 µM (inactive)	19.8 µM (inactive)	32.2 µM (inactive)	18.2 µM (inactive)	49.4 µM (inactive)	32.3 µM (inactive)	63.1 µM (inactive)	36.7 µM (inactive)	30.8 µM (inactive)	76.9	71.8 µM (inactive)	71.3 µM (inactive)	31.4 µM (inactive)	42 µM (inactive)	57.3 µM (inactive)	> 100 µM (inactive)	–
CC(C)(C)OC(=O)[N+](=N)C(=O)C1CCC(=O)N1C(=O)OCc1ccccc1 (stereo not drawn)	> 100 µM (inactive)	86.7 µM (inactive)	> 100 µM (inactive)	> 100 µM (inactive)	> 100 µM (inactive)	> 100 µM (inactive)	–	> 100 µM (inactive)	> 100 µM (inactive)	> 100 µM (inactive)	> 100 µM (inactive)	> 100 µM (inactive)	–	> 100 µM (inactive)	> 100 µM (inactive)	> 100 µM (inactive)	> 100 µM (inactive)	> 100 µM (inactive)	> 100 µM (inactive)	> 100 µM (inactive)
CCCc1cc(O)c2c(C)c3[nH]c4ccc(Cl)cc4c3c(C)c2n1	9.57 µM (inactive)	1.6 µM (inactive)	1.91 µM (inactive)	2.81 µM (inactive)	–	3.21 µM (inactive)	3.57 µM (inactive)	1.77 µM (inactive)	6.71 µM (inactive)	1.61 µM (inactive)	2.36 µM (inactive)	1.85 µM (inactive)	1.69	1.63 µM (inactive)	2.46 µM (inactive)	3.48 µM (inactive)	2.31 µM (inactive)	1.97 µM (inactive)	1.46 µM (inactive)	10.7 µM (inactive)
COc1ccc(C(OC(=O)[C@H](O[Si](C)(C)C(C)(C)C)[C@@H](NC(=O)c2ccccc2)c2ccccc2)c2ccc(OC)cc2)cc1	> 100 µM (inactive)	> 100 µM (inactive)	> 100 µM (inactive)	52 µM (inactive)	> 100 µM (inactive)	> 100 µM (inactive)	> 100 µM (inactive)	> 100 µM (inactive)	> 100 µM (inactive)	> 100 µM (inactive)	> 100 µM (inactive)	48.3 µM (inactive)	> 100	> 100 µM (inactive)	> 100 µM (inactive)	> 100 µM (inactive)	> 100 µM (inactive)	> 100 µM (inactive)	–	> 100 µM (inactive)
